Experimental data: patent US11230717B2, “Plants having increased tolerance to herbicides” (BASF SE, priority 2013, dated 2022)

How the values were obtained:
[1] = molecular target: T1, Hordeum HPPD (SEQ ID NO:2) (Hordeum vulgare, UniProt O48604, A164G/R146V/R147D/R148G); experiment: HPPD activity assay, in vitro characterization; assay type: biochemical
T1 construct: subcloned into a modified pET24D (Novagen) expression vector resulting in N-terminally His-tagged expression constructs; His (N); made in house; host or cells: E. coli BL21 (DE3)
Experimental: (§1) HPPD produces homogentisic acid and CO2 from 4-hydroxyphenylpyruvate (4-HPP) and O2. The activity assay for HPPD is based on the analysis of homogentisic acid by reversed phase HPLC.
(§2) The assay mixture can contain 150 mM potassium phosphate buffer pH 7.0, 50 mM L-ascorbic acid, 100 μM Catalase (Sigma-Aldrich), 1 μM FeSO4 and 0.2 units of purified HPPD enzyme in a total volume of 505 μl. 1 unit is defined as the amount of enzyme that is required to produce 1 nmol of HGA per minute at 20° C.
(§3) After a preincubation of 30 min the reaction is started by adding 4-HPP to a final concentration of 0.05 mM. The reaction is allowed to proceed for 45 min at room temperature. The reaction is stopped by the addition of 50 μl of 4.5 M phosphoric acid. The sample is filtered using a […] pore size PVDF filtration device.
(§4) 5 μl of the cleared sample is analyzed on an UPLC HSS T3 column (particle size 1.8 μm, dimensions 2,1×50 mm; Waters) by isocratic elution using 90% 20 mM NaH2PO4 pH 2.2, 10% methanol (v/v).
(§5) HGA is detected electrochemically at 750 mV (mode: DC; polarity: positive) and quantified by integrating peak areas (Empower software; Waters).
(§6) Inhibitors are dissolved in DMSO (dimethylsulfoxide) to a concentration of 0.5 mM. From this stock solution serial five-fold dilutions are prepared in DMSO, which are used in the assay. The respective inhibitor solution accounts for 1% of the assay volume. […] Activities are normalized by setting the uninhibited enzyme activity to 100%. IC50 values are calculated using non-linear regression.
Using methods which are described in the above examples or well known in the art, purified, recombinant wildtype HPPD enzymes are characterized with respect to their kinetic properties and sensitivity towards HPPD inhibiting herbicides. Apparent michaelis constants (Km) and maximal reaction velocities (Vmax) are calculated by non-linear regression with the software GraphPad Prism 5 (GraphPad Software, La Jolla, USA) using a substrate inhibition model. […] Weighted means (by standard error) of Km and IC50 values are calculated from at least three independent experiments. […] To assess the potential performance of a herbicide tolerance trait a tolerance index (TI) is calculated using the following formula: […]

Picrophilus HPPD = experiment: HPPD activity assay, in vitro characterization; assay type: biochemical, Picrophilus torridus; conditions: normalized to Hordeum SEQ ID NO:2
Experimental: as §1, §2, §3, §4, §5
(§7) Inhibitors are dissolved in DMSO (dimethylsulfoxide) to a concentration of 0.5 mM. From this stock solution serial five-fold dilutions are prepared in DMSO, which are used in the assay. […] IC50 values are calculated using non-linear regression. […]

Avena HPPD = experiment: HPPD activity assay, in vitro characterization; assay type: biochemical, Avena sativa; conditions: normalized to Hordeum SEQ ID NO:2
Experimental: as §1, §2, §3, §4, §5, §7

[2] = molecular target: T2, Arabidopsis HPPD variant F381L (Arabidopsis thaliana, UniProt P93836, F381L); experiment: HPPD activity assay, in vitro characterization of HPPD mutants; assay type: biochemical; conditions: normalized to wildtype
T2 construct: His6 (N); made in house; host or cells: E. coli BL21 (DE3)
Experimental: as §1, §2, §3, §4, §5, §6
(§8) Purified, mutant HPPD enzymes are obtained by the methods described above. Dose response and kinetic measurements are carried out using the described HPPD activity assay. Apparent michaelis constants (Km) and maximal reaction velocities (Vmax) are calculated by non-linear regression with the software GraphPad Prism 5 (GraphPad Software, La Jolla, USA) using a substrate inhibition model. […] Weighted means (by standard error) of Km and IC50 values are calculated from at least three independent experiments.
(§9) Field performance of the optimized HPPD enzyme, which is used as a herbicide tolerance trait may depend not only on its lack of sensitivity towards HPPD inhibiting herbicides but also on its activity. To assess the potential performance of a herbicide tolerance trait a tolerance index (TI) is calculated using the following formula: […]

[3] = molecular target: T3, Arabidopsis HPPD variant M335H, P336A (Arabidopsis thaliana, UniProt P93836, M335H/P336A); experiment: as above; assay type: biochemical; conditions: normalized to wildtype
T3 construct: His6 (N); made in house; host or cells: E. coli BL21 (DE3)
Experimental: as §1, §2, §3, §4, §5, §6, §8, §9

[4] = molecular target: T4, Arabidopsis HPPD variant M335H, P336G (Arabidopsis thaliana, UniProt P93836, M335H/P336G); experiment: as above; assay type: biochemical; conditions: normalized to wildtype
T4 construct: His6 (N); made in house; host or cells: E. coli BL21 (DE3)
Experimental: as §1, §2, §3, §4, §5, §6, §8, §9

[5] = molecular target: T5, Arabidopsis HPPD variant M335H, P336G, E363Q (Arabidopsis thaliana, UniProt P93836, E363Q/M335H/P336G); experiment: as above; assay type: biochemical; conditions: normalized to wildtype
T5 construct: His6 (N); made in house; host or cells: E. coli BL21 (DE3)
Experimental: as §1, §2, §3, §4, §5, §6, §8, §9

[6] = molecular target: T6, Hordeum HPPD variant F377L (Hordeum vulgare, UniProt O48604, A164G/F377L/R146V/R147D/R148G); experiment: as above; assay type: biochemical; conditions: normalized to wild-type
T6 construct: His (N); made in house; host or cells: E. coli BL21 (DE3)
Experimental: as §1, §2, §3, §4, §5, §6, §8, §9

[7] = molecular target: T7, Hordeum HPPD variant L250M (Hordeum vulgare, UniProt O48604, A164G/L250M/R146V/R147D/R148G); experiment: as above; assay type: biochemical; conditions: normalized to wild-type
T7 construct: His (N); made in house; host or cells: E. coli BL21 (DE3)
Experimental: as §1, §2, §3, §4, §5, §6, §8, §9

[8] = molecular target: T8, Hordeum HPPD variant S252T (Hordeum vulgare, UniProt O48604, A164G/R146V/R147D/R148G/S252T); experiment: as above; assay type: biochemical; conditions: normalized to wild-type
T8 construct: His (N); made in house; host or cells: E. coli BL21 (DE3)
Experimental: as §1, §2, §3, §4, §5, §6, §8, §9

[9] = Hordeum HPPD Wild-type (SEQ ID NO: 2), reference of Table 16
[10] = Hordeum HPPD, reference, normalized to SEQ ID NO:2

T1 sequence (O48604 whole entry R146V/R147D/R148G/A164G): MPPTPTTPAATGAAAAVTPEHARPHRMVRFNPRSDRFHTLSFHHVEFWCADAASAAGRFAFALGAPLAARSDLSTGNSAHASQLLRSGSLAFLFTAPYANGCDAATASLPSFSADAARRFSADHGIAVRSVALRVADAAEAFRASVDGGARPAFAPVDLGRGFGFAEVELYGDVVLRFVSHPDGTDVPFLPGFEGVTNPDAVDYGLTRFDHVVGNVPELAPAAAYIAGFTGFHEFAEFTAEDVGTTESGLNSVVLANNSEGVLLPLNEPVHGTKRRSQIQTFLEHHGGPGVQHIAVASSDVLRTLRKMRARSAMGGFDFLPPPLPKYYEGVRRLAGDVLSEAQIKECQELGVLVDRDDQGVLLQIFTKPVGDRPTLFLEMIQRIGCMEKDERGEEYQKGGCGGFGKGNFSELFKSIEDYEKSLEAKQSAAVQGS
T2 sequence (P93836 whole entry F381L): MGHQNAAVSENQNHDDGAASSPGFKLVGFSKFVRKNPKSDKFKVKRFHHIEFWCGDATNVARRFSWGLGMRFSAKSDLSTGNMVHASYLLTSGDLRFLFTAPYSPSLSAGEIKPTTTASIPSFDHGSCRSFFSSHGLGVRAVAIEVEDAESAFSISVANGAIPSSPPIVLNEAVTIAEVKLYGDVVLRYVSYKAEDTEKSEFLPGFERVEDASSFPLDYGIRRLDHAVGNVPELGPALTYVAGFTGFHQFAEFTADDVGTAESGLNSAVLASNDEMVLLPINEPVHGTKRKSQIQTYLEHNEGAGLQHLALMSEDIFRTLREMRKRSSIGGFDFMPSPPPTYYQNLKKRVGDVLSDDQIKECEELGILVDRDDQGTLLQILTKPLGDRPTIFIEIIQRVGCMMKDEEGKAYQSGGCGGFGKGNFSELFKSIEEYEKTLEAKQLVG
T3 sequence (P93836 whole entry M335H/P336A): as the sequence (P93836 whole entry F381L) above, with M335H, P336A, L381F counted along it
T5 sequence (P93836 whole entry M335H/P336G/E363Q): as the sequence (P93836 whole entry F381L) above, with M335H, P336G, E363Q, L381F counted along it
T8 sequence (O48604 whole entry R146V/R147D/R148G/A164G/S252T): as the sequence (O48604 whole entry R146V/R147D/R148G/A164G) above, with S252T counted along it
T4 sequence (P93836 whole entry M335H/P336G): as the sequence (P93836 whole entry F381L) above, with M335H, P336G, L381F counted along it
T7 sequence (O48604 whole entry R146V/R147D/R148G/A164G/L250M): as the sequence (O48604 whole entry R146V/R147D/R148G/A164G) above, with L250M counted along it
T6 sequence (O48604 whole entry R146V/R147D/R148G/A164G/F377L): as the sequence (O48604 whole entry R146V/R147D/R148G/A164G) above, with F377L counted along it

SMILES | Ki [1] [nM] | Normalized tolerance index (TI) [1, 9] | Normalized tolerance index (TI) [1, 10] | TI (tolerance index) ([1]; Hordeum HPPD, not normalized) | Normalized tolerance index (TI) (Picrophilus HPPD) | Normalized tolerance index (TI) (Avena HPPD) | Normalized tolerance index (TI) [2] | Normalized tolerance index (TI) [3] | Normalized tolerance index (TI) [4] | Normalized tolerance index (TI) [5] | Normalized tolerance index (TI) [6] | Normalized tolerance index (TI) [7] | Normalized tolerance index (TI) [8]
Cn1nnnc1NC(=O)c1c(F)cc(Cl)c(S(C)(=O)=O)c1Cl [Inhibitor 1, 2,4-dichloro-6-fluoro-3-methylsulfonyl-N-(1-methyltetrazol-5-yl)benzamide] | 3.7 | 1 | 1 | 1.6E−3 | 2.1 | 2.8 | 1.2 | 0.6 | 0.5 | 0.2 | 11.8 | 3.1 | 1.8
CSc1c(Cl)cc(F)c(C(=O)Nc2ncnn2C)c1Cl [Inhibitor 3, 2,4-dichloro-6-fluoro-3-methylsulfanyl-N-(2-methyl-1,2,4-triazol-3-yl)benzamide] |  | 1 | 1 |  | 0.7 | 2.8 | 0.2 | 0.2 | 0.1 | 0.3 | 2 | 1 | 11.1
